Assay results reported in paper PMC10318897, “The structure of Leptospira interrogans GAPDH sheds light into an immunoevasion factor that can target the anaphylatoxin C5a of innate immunity” (Frontiers in Immunology, 2023).

Experiments:
LiGAPDH [1] = target: T1, LiGAPDH (Leptospira interrogans, UniProt Q72QM3); assay: NADH formation at […] nm, nonlinear fit; type: biochemical; conditions: substrate inhibition constant, 2 mM NAD+, 40 mM Tris-HCl pH 8.5, 2 mM EDTA, 25 °C
T1 construct: gene gapA; full-length, N-terminal His6 tag and TEV site (pETM-11), expressed in E. coli Rosetta(DE3); homotetramer; 36648 Da subunit
T1 sequence (Q72QM3 entry or part of it): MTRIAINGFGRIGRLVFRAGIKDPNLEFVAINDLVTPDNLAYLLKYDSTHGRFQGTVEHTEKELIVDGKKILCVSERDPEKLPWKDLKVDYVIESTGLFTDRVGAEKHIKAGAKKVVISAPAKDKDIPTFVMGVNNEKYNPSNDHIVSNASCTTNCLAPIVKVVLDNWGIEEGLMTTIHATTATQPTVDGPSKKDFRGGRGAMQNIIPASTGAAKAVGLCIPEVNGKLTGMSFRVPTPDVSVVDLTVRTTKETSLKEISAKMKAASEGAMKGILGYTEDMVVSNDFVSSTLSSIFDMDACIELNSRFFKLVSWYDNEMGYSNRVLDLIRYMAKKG

LiGAPDH [2] = target: T1, LiGAPDH; assay: NADH formation at […] nm, initial rates, nonlinear fit; type: biochemical
LiGAPDH [3] = target: T1, LiGAPDH; assay: X-ray crystal structure, […] Å; type: binding; conditions: active site, N-terminal Rossmann domain, all eight subunits

Structure (SMILES): O=C[C@H](O)COP(=O)(O)O [G3P]
- KSS (LiGAPDH [1]; 5 mM phosphate): 2.0 ± 0.3 mM

Structure (SMILES): O=P(O)(O)O [Pi]
- KSS (LiGAPDH [1]; 2 mM G3P): 10 ± 1 mM

Structure (SMILES): CCCCCCCCCCCCCCCc1cccc(O)c1C(=O)O [anacardic acid]
- Ki (LiGAPDH [2]): 41 ± 2 µM

Structure (SMILES): NC(=O)c1ccc[n+]([C@@H]2O[C@H](COP(=O)(O)OP(=O)(O)OC[C@H]3O[C@@H](n4cnc5c(N)ncnc54)[C@H](O)[C@@H]3O)[C@@H](O)[C@H]2O)c1 [NAD^+]
- X-ray crystal structure, 2.37 Å (LiGAPDH [3]): The crystal structure corresponds to the holoenzyme with an NAD^+ molecule tightly bound into the active

Structure (SMILES): COc1cc(/C=C/C(=O)CC(=O)/C=C/c2ccc(O)c(OC)c2)ccc1O [curcumin]
- Ki (LiGAPDH [2]): 59 ± 3 µM
